Measured values reported in patent US20220220373A1, “FLUORESCENT PROBES FOR MONOACYLGLYCEROL LIPASE (MAGL)” (Hoffmann-La Roche Inc., priority 2019, published 2022).
pIC50: −log10 of the molar value.

These compounds were tested against T1, MAGL (Homo sapiens, UniProt Q99685) (assay: 2-AG assay (MAGL inhibitory activity, hydrolysis of 2-arachidonoylglycerol followed by mass spectrometry)). Conditions: 50 pM MAGL, 8 μM 2-arachidonoylglycerol, 15 min pre-incubation, 30 min incubation at RT.
T1 sequence (Q99685 1-303): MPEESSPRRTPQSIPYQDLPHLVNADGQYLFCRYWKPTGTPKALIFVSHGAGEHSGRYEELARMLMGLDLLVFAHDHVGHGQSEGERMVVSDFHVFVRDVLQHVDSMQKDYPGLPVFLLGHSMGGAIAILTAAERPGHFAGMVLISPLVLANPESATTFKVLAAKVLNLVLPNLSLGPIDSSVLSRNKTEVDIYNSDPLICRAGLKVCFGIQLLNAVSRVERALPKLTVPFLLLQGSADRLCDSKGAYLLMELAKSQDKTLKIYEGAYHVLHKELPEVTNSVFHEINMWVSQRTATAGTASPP
Assay type: biochemical
Procedure: Compounds were profiled for MAGL inhibitory activity by determining the enzymatic activity by following the hydrolysis of the natural substrate 2-arachidonoylglycerol (2-AG) resulting in arachidonic acid, which can be followed by mass spectrometry. This assay is hereinafter abbreviated “2-AG assay”.
The 2-AG assay was carried out in 384 well assay plates (PP, Greiner Cat#784201) in a total volume of 20 μL. Compound dilutions were made in 100% DMSO (VWR Chemicals 23500.297) in a polypropylene plate in 3-fold dilution steps to give a final concentration range in the assay from 12.5 μM to 0.8 pM. […] compound dilutions (100% DMSO) were added to 9 μL MAGL in assay buffer (50 mM TRIS (GIBCO, 15567-027), 1 mM EDTA (Fluka, 03690-100 mL), 0.01% (v/v) Tween. After shaking, the plate was incubated for 15 min at RT. To start the reaction, 10 μL 2-arachidonoylglycerol in assay buffer was added. The final concentrations in the assay was 50 pM MAGL and 8 μM 2-arachidonoylglyerol. After shaking and 30 min incubation at RT, the reaction was quenched by the addition of […] of ACN containing 4 μM of d8-arachidonic acid. The amount of arachidonic acid was traced by an online SPE system (Agilent Rapidfire) coupled to a triple quadrupole mass spectrometer (Agilent 6460). A C18 SPE cartridge (G9205A) was used in an ACN/water liquid setup. The mass spectrometer was operated in negative electrospray mode following the mass transitions 303.1→259.1 for arachidonic acid and 311.1→267.0 for d8-arachidonic acid. The activity of the compounds was calculated based on the ratio of intensities [arachidonic acid/d8-arachidonic acid].

Row | Compound | pIC50
1 | O=C(CCOCCOCCNc1ccc([N+](=O)[O-])c2nonc12)NCCOc1cccc(C(c2ccccc2)C2CCN(C(=O)N3CC[C@@H]4OCC(=O)N[C@@H]4C3)CC2)c1 (single isomer, unassigned) [Example 12, N-[2-[3-[(S or R)-[1-[(4aR,8aS)-3-Oxo-4,4a,5,7,8,8a-hexahydropyrido[4,3-b][1,4]oxazine-6-carbonyl]-4-piperidyl]-phenyl-methyl]phenoxy]ethyl]-3-[2-[2-[(4-nitro-2,1,3-benzoxadiazol-7-yl)amino]ethoxy]ethoxy]propanamide] | 9.30
2 | O=C(CCOCCOCCNc1ccc([N+](=O)[O-])c2nonc12)NCCOc1cccc(C(c2ccccc2)C2CCN(C(=O)N3CC[C@@H]4OCC(=O)N[C@@H]4C3)CC2)c1 (single isomer, unassigned) [Example 13, N-[2-[3-[(R or S)-[1-[(4aR,8aS)-3-Oxo-4,4a,5,7,8,8a-hexahydropyrido[4,3-b][1,4]oxazine-6-carbonyl]-4-piperidyl]phenyl-methyl]phenoxy]ethyl]-3-[2-[2-[(4-nitro-2,1,3-benzoxadiazol-7-yl)amino]ethoxy]ethoxy]propanamide] | 8.80
3 | O=C(CCOCCNC(=O)CCc1ccc2n1[B-](F)(F)[N+]1=C(c3ccc[nH]3)C=CC1=C2)NCCOc1cccc(C(c2ccccc2)C2CCN(C(=O)N3CC[C@@H]4OCC(=O)N[C@@H]4C3)CC2)c1 (single isomer, unassigned) [Example 21, N-[2-[3-[2-[3-[(S or R)-[1-[(4aR,8aS)-3-oxo-4,4a,5,7,8,8a-hexahydropyrido[4,3-b][1,4]oxazine-6-carbonyl]-4-piperidyl]-phenyl-methyl]phenoxy]ethylamino]-3-oxo-propoxy]ethyl]-3-12,2-difluoro-12-(1H-pyrrol-2-yl)-3-aza-1-azonia-2-boranuidatricyclo[7.3.0.03,7]dodeca-1(12),4,6,8,10-pentaen-4-yl]propanamide] | 9.52
4 | O=C(CCOCCOCCOCCNc1ccc([N+](=O)[O-])c2nonc12)NCCOc1cccc([C@H](c2ccccc2)C2CCN(C(=O)N3CC[C@@H]4OCC(=O)N[C@@H]4C3)CC2)c1 (single isomer, unassigned) [Example 22, N-[2-[3-[(S or R)-11-1(4aR,8aS)-3-oxo-4,4a,5,7,8,8a-hexahydropyrido[4,3-b][1,4]oxazine-6-carbonyl]-4-piperidyl]-phenyl-methyl]phenoxy]ethyl]-3-[2-[2-[2-[(4-nitro-2,1,3-benzoxadiazol-7-yl)amino]ethoxy]ethoxy]ethoxy]propanamide] | 9.40
5 | O=C(CCOCCOCCOCCNc1ccc([N+](=O)[O-])c2nonc12)NCCOc1cccc(C(c2ccccc2)C2CCN(C(=O)N3CC[C@@H]4OCC(=O)N[C@@H]4C3)CC2)c1 (stereo partly drawn) [Example 1, 3-(2-(2-(2-((7-Nitrobenzo[c][1,2,5]oxadiazol-4-yl)amino)ethoxy)ethoxy)ethoxy)-N-(2-(3-((1-((4aR,8aS)-3-oxooctahydro-2H-pyrido[4,3-b][1,4]oxazine-6-carbonyl)piperidin-4-yl)(phenyl)methyl)phenoxy)ethyl)propanamide] | 9.00
6 | O=C(CCOCCNc1ccc([N+](=O)[O-])c2nonc12)NCCOc1cccc(C(c2ccccc2)C2CCN(C(=O)N3CC[C@@H]4OCC(=O)N[C@@H]4C3)CC2)c1 (some centres unmarked) [Example 2] | 8.92
7 | CC(C)(C)OC(=O)NCCOc1cccc(C(=C2CCN(C(=O)N3CC[C@@H]4OCC(=O)N[C@@H]4C3)CC2)c2ccccc2)c1 [Example 23, tert-Butyl (2-(3-((1-((4aR,8aS)-3-oxooctahydro-2H-pyrido[4,3-b][1,4]oxazine-6-carbonyl)piperidin-4-ylidene)(phenyl)methyl)phenoxy)ethyl)carbamate] | 8.24
8 | O=C1CO[C@H]2CCN(C(=O)N3CCC(=C(c4ccccc4)c4cccc(OCCNc5ccc([N+](=O)[O-])c6nonc56)c4)CC3)C[C@H]2N1 [Example 24] | 8.26
9 | CC(C)(C)OC(=O)NCCOc1ccc(C(=C2CCN(C(=O)N3CC[C@@H]4OCC(=O)N[C@@H]4C3)CC2)c2ccccc2)cc1 [Example 25, tert-Butyl (2-(4-((1-((4aR,8aS)-3-oxooctahydro-2H-pyrido[4,3-b][1,4]oxazine-6-carbonyl)piperidin-4-ylidene)(phenyl)methyl)phenoxy)ethyl)carbamate] | 7.89

The remaining lines, values ahead:

Row | pIC50 | Compound
10 | 8.89 | CC(C)(C)OC(=O)NCCOCCC(=O)NCCOc1cccc(C(c2ccccc2)C2CCN(C(=O)N3CC[C@@H]4OCC(=O)N[C@@H]4C3)CC2)c1 (single isomer, unassigned) [Example 14, tert-Butyl N-[2-[3-[2-[3-[(S or R)-[1-[(4aR,8aS)-3-oxo-4,4a,5,7,8,8a-hexahydropyrido[4,3-b][1,4]oxazine-6-carbonyl]-4-piperidyl]-phenyl-methyl]phenoxy]ethylamino]-3-oxo-propoxy]ethyl]carbamate]
11 | 8.49 | CC(C)(C)OC(=O)NCCOCCC(=O)NCCOc1cccc([C@@H](c2ccccc2)C2CCN(C(=O)N3CC[C@@H]4OCC(=O)N[C@@H]4C3)CC2)c1 (single isomer, unassigned) [Example 15, tert-Butyl N-[2-[3-[2-[3-[(R or S)-[1-1(4aR,8aS)-3-oxo-4,4a,5,7,8,8a-hexahydropyrido[4,3-b][1,4]oxazine-6-carbonyl]-4-piperidyl]-phenyl-methyl]phenoxy]ethylamino]-3-oxo-propoxy]ethyl]carbamate]
12 | 7.74 | NCCOCCC(=O)NCCOc1cccc([C@@H](c2ccccc2)C2CCN(C(=O)N3CC[C@@H]4OCC(=O)N[C@@H]4C3)CC2)c1 (single isomer, unassigned) [Example 16, N-[2-[3-[(R or S)-[1-1(4aR,8aS)-3-Oxo-4,4a,5,7,8,8a-hexahydropyrido[4,3-b][1,4]oxazine-6-carbonyl]-4-piperidyl]phenyl-methyl]phenoxy]ethyl]-3-(2-aminoethoxy)propanamide]
13 | 9.15 | O=C(CCOCCNc1ccc([N+](=O)[O-])c2nonc12)NCCOc1cccc(C(c2ccccc2)C2CCN(C(=O)N3CCC4OCC(=O)NC4C3)CC2)c1 (single isomer, unassigned) [Example 17, N-[2-[3-[(S or R)-11-1(4aR,8aS)-3-Oxo-4,4a,5,7,8,8a-hexahydropyrido[4,3-b][1,4]oxazine-6-carbonyl]-4-piperidyl]-phenyl-methyl]phenoxy]ethyl]-3-[2-[(4-nitro-2,1,3-benzoxadiazol-7-yl)amino]ethoxy]propanamide]
14 | 8.14 | O=C(CCOCCNc1ccc([N+](=O)[O-])c2nonc12)NCCOc1cccc(C(c2ccccc2)C2CCN(C(=O)N3CCC4OCC(=O)NC4C3)CC2)c1 (single isomer, unassigned) [Example 18, N-[2-[3-[(R or S)-[1-1(4aR,8aS)-3-Oxo-4,4a,5,7,8,8a-hexahydropyrido[4,3-b][1,4]oxazine-6-carbonyl]-4-piperidyl]-phenyl-methyl]phenoxy]ethyl]-3-12-[(4-nitro-2,1,3-benzoxadiazol-7-yl)amino]ethoxy]propanamide]
15 | 8.70 | CC(C)(C)OC(=O)NCCOCCOCCOCCC(=O)NCCOc1cccc(C(c2ccccc2)C2CCN(C(=O)N3CC[C@@H]4OCC(=O)N[C@@H]4C3)CC2)c1 (single isomer, unassigned) [Example 19, tert-Butyl N-[2-[2-[2-[3-[2-[3-[(S or R)-[1-[(4aR,8aS)-3-oxo-4,4a,5,7,8,8a-hexahydropyrido[4,3-b][1,4]oxazine-6-carbonyl]-4-piperidyl]-phenyl-methyl]phenoxy]ethylamino]-3-oxo-propoxy]ethoxy]ethoxy]ethyl]carbamate]
16 | 7.94 | NCCOCCOCCOCCC(=O)NCCOc1cccc([C@H](c2ccccc2)C2CCN(C(=O)N3CC[C@@H]4OCC(=O)N[C@@H]4C3)CC2)c1 (single isomer, unassigned) [Example 20, N-[2-[3-[(S or R)-[1-1(4aR,8aS)-3-Oxo-4,4a,5,7,8,8a-hexahydropyrido[4,3-b]11,4]oxazine-6-carbonyl]-4-piperidyfl-phenyl-methyl]phenoxy]ethyl]-3-[2-[2-(2-aminoethoxy)ethoxy]ethoxy]propanamide]
17 | 8.68 | O=C(CCOCCOCCNc1ccc([N+](=O)[O-])c2nonc12)NCCOc1cccc(C(c2ccccc2)C2CCN(C(=O)N3CC[C@@H]4OCC(=O)N[C@@H]4C3)CC2)c1 (stereo partly drawn) [Example 3, 3-(2-(2-((7-Nitrobenzo[c][1,2,5]oxadiazol-4-yl)amino)ethoxy)ethoxy)-N-(2-(3-((1-((4aR,8aS)-3-oxooctahydro-2H-pyrido[4,3-b][1,4]oxazine-6-carbonyl)piperidin-4-yl)(phenyl)methyl)phenoxy)ethyl)propanamide]
